This note sets out measurements from US10392391B2 (Vertex Pharmaceuticals Incorporated, priority 2012, dated 2019).

Like-named read-outs stand apart in the source and are kept apart here.

For this test, the target named is ATR kinase (full-length ATR) (Homo sapiens (Human), UniProt Q13535). The experiment in a line: ATR inhibition assay (radioactive-phosphate incorporation). The test is classed as biochemical. In short, it runs like this:
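Ki(app) was fitted by non-linear regression to background-corrected initial rates. Full-length ATR (5 nM) phosphorylated 800 μM peptide using 10 μM [γ-33P]ATP at 25° C in Tris/HCl pH 7.5 buffer with MgCl2, DTT and 7% DMSO. After 10-minute compound pre-incubation and 24-hour reaction, phosphocellulose filters were scintillation counted.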

Setting [1] is: Ki(app), 5 nM full-length ATR, 10 μM ATP, 25° C.

Chain of ATR kinase (full-length ATR) (Q13535 whole entry): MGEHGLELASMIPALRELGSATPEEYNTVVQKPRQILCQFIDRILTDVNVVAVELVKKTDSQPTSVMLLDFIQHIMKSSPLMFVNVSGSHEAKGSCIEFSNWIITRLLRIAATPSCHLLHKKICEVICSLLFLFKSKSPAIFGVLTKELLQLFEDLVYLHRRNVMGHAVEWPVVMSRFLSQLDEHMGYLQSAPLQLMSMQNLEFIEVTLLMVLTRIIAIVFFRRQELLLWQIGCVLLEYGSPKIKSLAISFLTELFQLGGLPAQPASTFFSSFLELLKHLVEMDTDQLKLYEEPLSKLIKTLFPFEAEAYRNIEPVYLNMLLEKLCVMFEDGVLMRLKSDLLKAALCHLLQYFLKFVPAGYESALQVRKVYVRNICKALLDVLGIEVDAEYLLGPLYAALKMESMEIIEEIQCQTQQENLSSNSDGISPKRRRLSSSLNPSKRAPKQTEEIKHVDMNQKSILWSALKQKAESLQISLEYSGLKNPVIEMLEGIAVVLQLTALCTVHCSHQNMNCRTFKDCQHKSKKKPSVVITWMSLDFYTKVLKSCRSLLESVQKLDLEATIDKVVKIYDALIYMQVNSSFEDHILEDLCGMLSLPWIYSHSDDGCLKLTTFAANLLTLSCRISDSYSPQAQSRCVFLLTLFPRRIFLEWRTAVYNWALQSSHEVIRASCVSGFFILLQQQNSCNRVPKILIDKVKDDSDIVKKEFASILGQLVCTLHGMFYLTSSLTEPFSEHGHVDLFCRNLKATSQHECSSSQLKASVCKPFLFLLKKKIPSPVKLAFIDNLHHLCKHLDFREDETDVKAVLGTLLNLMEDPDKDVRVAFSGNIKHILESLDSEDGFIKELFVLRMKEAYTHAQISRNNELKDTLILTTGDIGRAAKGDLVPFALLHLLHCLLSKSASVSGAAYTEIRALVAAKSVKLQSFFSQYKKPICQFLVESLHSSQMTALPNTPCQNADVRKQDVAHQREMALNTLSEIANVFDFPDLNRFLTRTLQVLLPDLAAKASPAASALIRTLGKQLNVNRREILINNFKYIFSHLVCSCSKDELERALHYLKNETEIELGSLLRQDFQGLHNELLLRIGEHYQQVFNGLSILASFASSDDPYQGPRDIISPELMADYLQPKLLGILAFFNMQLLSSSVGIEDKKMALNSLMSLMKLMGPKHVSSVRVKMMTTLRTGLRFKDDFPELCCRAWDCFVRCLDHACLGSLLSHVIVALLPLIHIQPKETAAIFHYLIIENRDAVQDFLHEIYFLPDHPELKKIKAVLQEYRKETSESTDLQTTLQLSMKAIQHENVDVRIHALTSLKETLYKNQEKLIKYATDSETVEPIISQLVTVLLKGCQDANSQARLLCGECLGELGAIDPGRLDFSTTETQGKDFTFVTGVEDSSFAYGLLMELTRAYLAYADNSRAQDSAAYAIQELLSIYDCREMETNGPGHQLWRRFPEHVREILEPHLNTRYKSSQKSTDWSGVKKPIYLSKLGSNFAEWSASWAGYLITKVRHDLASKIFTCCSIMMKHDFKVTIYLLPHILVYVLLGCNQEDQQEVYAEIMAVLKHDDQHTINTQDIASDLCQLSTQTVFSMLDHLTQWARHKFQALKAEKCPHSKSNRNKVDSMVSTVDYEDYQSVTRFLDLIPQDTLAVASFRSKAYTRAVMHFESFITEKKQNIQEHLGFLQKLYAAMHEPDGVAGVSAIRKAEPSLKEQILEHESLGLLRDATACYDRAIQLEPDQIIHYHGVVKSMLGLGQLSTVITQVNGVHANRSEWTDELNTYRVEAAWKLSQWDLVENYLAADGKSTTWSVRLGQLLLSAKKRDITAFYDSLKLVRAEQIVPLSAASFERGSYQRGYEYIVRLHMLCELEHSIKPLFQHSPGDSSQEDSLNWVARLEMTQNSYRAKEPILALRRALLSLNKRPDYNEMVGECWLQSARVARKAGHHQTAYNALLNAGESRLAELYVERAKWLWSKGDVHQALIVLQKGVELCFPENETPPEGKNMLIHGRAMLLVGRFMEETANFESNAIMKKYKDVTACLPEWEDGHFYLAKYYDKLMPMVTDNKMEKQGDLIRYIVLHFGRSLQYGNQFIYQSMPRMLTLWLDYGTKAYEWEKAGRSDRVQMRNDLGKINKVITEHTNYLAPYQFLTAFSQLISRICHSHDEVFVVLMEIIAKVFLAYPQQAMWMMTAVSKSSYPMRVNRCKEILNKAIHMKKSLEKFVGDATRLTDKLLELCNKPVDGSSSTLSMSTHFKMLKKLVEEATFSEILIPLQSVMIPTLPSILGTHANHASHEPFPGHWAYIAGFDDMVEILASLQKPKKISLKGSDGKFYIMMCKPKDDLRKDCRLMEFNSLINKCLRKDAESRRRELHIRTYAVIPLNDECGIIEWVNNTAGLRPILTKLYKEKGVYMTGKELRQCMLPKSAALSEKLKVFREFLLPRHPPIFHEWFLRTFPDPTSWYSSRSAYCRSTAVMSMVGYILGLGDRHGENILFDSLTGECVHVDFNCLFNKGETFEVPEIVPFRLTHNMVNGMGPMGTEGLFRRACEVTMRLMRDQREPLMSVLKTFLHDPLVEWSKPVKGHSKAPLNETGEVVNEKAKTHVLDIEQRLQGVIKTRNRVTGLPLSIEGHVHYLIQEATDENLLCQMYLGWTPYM

As to `CO[C@@H]1CCN(C(=O)C2CCN(c3ccncc3NC(=O)c3c(N)nn4cc(F)cnc34)CC2)C1` [I-G-93, (R)-2-amino-6-fluoro-N-(4-(4-(3-methoxypyrrolidine-1-carbonyl)piperidin-1-yl)pyridin-3-yl)pyrazolo[1,5-a]pyrimidine-3-carboxamide], the Ki under setting [1] is 10 to 1000 nM. On the same count and under the same terms, under `CO[C@H]1CCN(C(=O)C2CCN(c3ccncc3NC(=O)c3c(N)nn4cc(F)cnc34)CC2)C1` [I-G-94, (S)-2-amino-6-fluoro-N-(4-(4-(3-methoxypyrrolidine-1-carbonyl)piperidin-1-yl)pyridin-3-yl)pyrazolo[1,5-a]pyrimidine-3-carboxamide] stands 10 to 1000 nM; under `C[C@@H]1CN(C(=O)C2CCN(c3c(F)cncc3NC(=O)c3c(N)nn4cc(F)cnc34)CC2)CCN1C` [I-G-50, (R)-2-amino-N-(4-(4-(3,4-dimethylpiperazine-1-carbonyl)piperidin-1-yl)-5-fluoropyridin-3-yl)-6-fluoropyrazolo[1,5-a]pyrimidine-3-carboxamide], 10 to 1000 nM; under `Nc1nn2cc(Cl)cnc2c1C(=O)Nc1cnccc1OC1CN2CCC1CC2` (centres unmarked) [I-O-62, 2-amino-6-chloro-N-(4-(quinuclidin-3-yloxy)pyridin-3-yl)pyrazolo[1,5-a]pyrimidine-3-carboxamide], 10 to 1000 nM. For `CN1CCN(C(=O)c2ccc(-c3ccncc3NC(=O)c3c(N)nn4cc(F)cnc34)cn2)CC1` [I-C-19, 2-amino-6-fluoro-N-(6-(4-methylpiperazine-1-carbonyl)-[3,4′-bipyridin]-3′-yl)pyrazolo[1,5-a]pyrimidine-3-carboxamide], under setting [1], the Ki fell in the range of 10 to 1000 nM. On the same count and under the same terms, under `CN1CC[C@H](Oc2ccncc2NC(=O)c2c(N)nn3cc(Cl)cnc23)C1` [I-O-69, (S)-2-amino-6-chloro-N-(4-((1-methylpyrrolidin-3-yl)oxy)pyridin-3-yl)pyrazolo[1,5-a]pyrimidine-3-carboxamide] stands 10 to 1000 nM; under `Nc1nn2cc(Cl)cnc2c1C(=O)Nc1cnccc1OC1CCNCC1` [I-O-80, 2-amino-6-chloro-N-(4-(piperidin-4-yloxy)pyridin-3-yl)pyrazolo[1,5-a]pyrimidine-3-carboxamide], 10 to 1000 nM; under `CN(C)C(=O)C1CCCN(c2ccncc2NC(=O)c2c(N)nn3cc(F)cnc23)C1` (centres unmarked) [I-N-290, 2-amino-N-(4-(3-(dimethylcarbamoyl)piperidin-1-yl)pyridin-3-yl)-6-fluoropyrazolo[1,5-a]pyrimidine-3-carboxamide], 10 to 1000 nM. Same read-out and setting: under `Nc1nn2cc(Cl)cnc2c1C(=O)Nc1cnccc1N1CCC(N2CCC2)CC1` [I-N-93, 2-amino-N-(4-(4-(azetidin-1-yl)piperidin-1-yl)pyridin-3-yl)-6-chloropyrazolo[1,5-a]pyrimidine-3-carboxamide] stands 10 to 1000 nM; under `CNc1cc(OC)c(NC(=O)c2c(N)nn3cc(F)cnc23)cn1` [I-O-90, 2-amino-6-fluoro-N-(4-methoxy-6-(methylamino)pyridin-3-yl)pyrazolo[1,5-a]pyrimidine-3-carboxamide], 10 to 1000 nM. Consider `CN1CCN(c2cc(Cl)ncc2NC(=O)c2c(N)nn3cc(Cl)cnc23)CC1` [I-N-52, 2-amino-6-chloro-N-(6-chloro-4-(4-methylpiperazin-1-yl)pyridin-3-yl)pyrazolo[1,5-a]pyrimidine-3-carboxamide], for which the Ki is 1000 to 5000 nM. Consider `Nc1nn2cc(F)cnc2c1C(=O)Nc1cnccc1-n1ccnc1C(F)(F)F` [I-N-219, 2-amino-6-fluoro-N-(4-(2-(trifluoromethyl)-1H-imidazol-1-yl)pyridin-3-yl)pyrazolo[1,5-a]pyrimidine-3-carboxamide], for which the Ki under setting [1] lay in the range of 10 to 1000 nM. The same measure, in the same setting: under `Nc1nn2cc(F)cnc2c1C(=O)Nc1cncc(F)c1N1CCC(C(=O)NC2COC2)CC1` [I-G-37, 2-amino-6-fluoro-N-(5-fluoro-4-(4-(oxetan-3-ylcarbamoyl)piperidin-1-yl)pyridin-3-yl)pyrazolo[1,5-a]pyrimidine-3-carboxamide] stands 10 to 1000 nM; under `Cc1nc(F)ccc1-c1ccncc1NC(=O)c1c(N)nn2cc(F)cnc12` [I-C-34, 2-amino-6-fluoro-N-(6-fluoro-2-methyl-[3,4′-bipyridin]-3′-yl)pyrazolo[1,5-a]pyrimidine-3-carboxamide], 10 to 1000 nM.

With `NCC1CCN(c2ccncc2NC(=O)c2c(N)nn3cc(Cl)cnc23)CC1` [I-N-91, 2-amino-N-(4-(4-(aminomethyl)piperidin-1-yl)pyridin-3-yl)-6-chloropyrazolo[1,5-a]pyrimidine-3-carboxamide], under setting [1], the Ki is less than 10 nM. In the case of `CN1C[C@@H]2CCN(c3ccncc3NC(=O)c3c(N)nn4cc(F)cnc34)C[C@@H]2C1=O` [I-N-224, 2-amino-6-fluoro-N-(4-((3aR,7aR)-2-methyl-3-oxohexahydro-1H-pyrrolo[3,4-c]pyridin-5(6H)-yl)pyridin-3-yl)pyrazolo[1,5-a]pyrimidine-3-carboxamide], under setting [1], the Ki lay in the range of 10 to 1000 nM. For `CN1CCN(CC2CCN(c3c(F)cncc3NC(=O)c3c(N)nn4cc(C5(C#N)CC5)cnc34)CC2)CC1` [I-N-192, 2-amino-6-(1-cyanocyclopropyl)-N-(5-fluoro-4-(4-((4-methylpiperazin-1-yl)methyl)piperidin-1-yl)pyridin-3-yl)pyrazolo[1,5-a]pyrimidine-3-carboxamide], the Ki under setting [1] lay in the range of 10 to 1000 nM.

For `Nc1nn2cc(F)cnc2c1C(=O)Nc1cncc(F)c1N1CCC(C(=O)N2CC[C@H](N3CCCC3)C2)CC1` [I-G-58, (S)—N-(4-(4-([1,3′-bipyrrolidine]-1′-carbonyl)piperidin-1-yl)-5-fluoropyridin-3-yl)-2-amino-6-fluoropyrazolo[1,5-a]pyrimidine-3-carboxamide], the Ki under setting [1] was 10 to 1000 nM.

For `Nc1nn2cc(Cl)cnc2c1C(=O)Nc1cnccc1O[C@H]1CCNC1` [I-O-76, (S)-2-amino-6-chloro-N-(4-(pyrrolidin-3-yloxy)pyridin-3-yl)pyrazolo[1,5-a]pyrimidine-3-carboxamide], the Ki under setting [1] lay in the range of 10 to 1000 nM.

Turning to `CN1CC[C@@H](OC2CCN(c3c(F)cncc3NC(=O)c3c(N)nn4cc(F)cnc34)CC2)C1` [I-N-132, (R)-2-amino-6-fluoro-N-(5-fluoro-4-(4-((1-methylpyrrolidin-3-yl)oxy)piperidin-1-yl)pyridin-3-yl)pyrazolo[1,5-a]pyrimidine-3-carboxamide], the Ki lay within 10 to 1000 nM.

Turning to `CN1CCC(C(=O)N2CCN(c3c(F)cncc3NC(=O)c3c(N)nn4cc(F)cnc34)CC2)CC1` [I-N-128, 2-amino-6-fluoro-N-(5-fluoro-4-(4-(1-methylpiperidine-4-carbonyl)piperazin-1-yl)pyridin-3-yl)pyrazolo[1,5-a]pyrimidine-3-carboxamide], the Ki under setting [1] lay within 10 to 1000 nM. On the same count and under the same terms, next, `Nc1nn2cc(F)cnc2c1C(=O)Nc1cncc(F)c1N1CCC(CN2CCOCC2)CC1` [I-N-149, 2-amino-6-fluoro-N-(5-fluoro-4-(4-(morpholinomethyl)piperidin-1-yl)pyridin-3-yl)pyrazolo[1,5-a]pyrimidine-3-carboxamide]: 10 to 1000 nM. Still for that read-out and setting: under `N#CCc1cnc2c(C(=O)Nc3cnccc3OC3CNC3)c(N)nn2c1` [I-O-82, 2-amino-N-(4-(azetidin-3-yloxy)pyridin-3-yl)-6-(cyanomethyl)pyrazolo[1,5-a]pyrimidine-3-carboxamide] stands less than 10 nM; under `Cn1cncc1-c1ccncc1NC(=O)c1c(N)nn2cc(F)cnc12` [I-C-56, 2-amino-6-fluoro-N-(4-(1-methyl-1H-imidazol-5-yl)pyridin-3-yl)pyrazolo[1,5-a]pyrimidine-3-carboxamide], 10 to 1000 nM.

For the compound `CN1CCC(Oc2c(F)cncc2NC(=O)c2c(N)nn3cc(F)cnc23)CC1` [I-O-89, 2-amino-6-fluoro-N-(5-fluoro-4-((1-methylpiperidin-4-yl)oxy)pyridin-3-yl)pyrazolo[1,5-a]pyrimidine-3-carboxamide], the Ki under setting [1] was in the range of 10 to 1000 nM.

In the case of `Nc1nn2cc(F)cnc2c1C(=O)Nc1cncc(F)c1N1CC(=O)N2CCCC2C1` (centres unmarked) [I-N-232, 2-amino-6-fluoro-N-(5-fluoro-4-(4-oxohexahydropyrrolo[1,2-a]pyrazin-2(1H)-yl)pyridin-3-yl)pyrazolo[1,5-a]pyrimidine-3-carboxamide], the Ki under setting [1] lay in the range of 10 to 1000 nM.

In the case of `Cc1cncc(NC(=O)c2c(N)nn3cc(F)cnc23)c1N1CCN(C2CCOCC2)CC1` [I-N-123, 2-amino-6-fluoro-N-(5-methyl-4-(4-(tetrahydro-2H-pyran-4-yl)piperazin-1-yl)pyridin-3-yl)pyrazolo[1,5-a]pyrimidine-3-carboxamide], the Ki under setting [1] fell in the range of 10 to 1000 nM. `CN1CCC(c2ccncc2NC(=O)c2c(N)nn3cc(F)cnc23)CC1=O` (centres unmarked) [I-C-73, 2-amino-6-fluoro-N-(4-(1-methyl-2-oxopiperidin-4-yl)pyridin-3-yl)pyrazolo[1,5-a]pyrimidine-3-carboxamide]: the Ki under setting [1] is 10 to 1000 nM.

Consider `CC(C)N1CCN(c2ccncc2NC(=O)c2c(N)nn3cc(Cl)cnc23)CC1` [I-N-39, 2-amino-6-chloro-N-(4-(4-isopropylpiperazin-1-yl)pyridin-3-yl)pyrazolo[1,5-a]pyrimidine-3-carboxamide], for which the Ki under setting [1] is 10 to 1000 nM. Consider `Nc1nn2cc(F)cnc2c1C(=O)Nc1cnccc1N1CCC(S(=O)(=O)N2CCN3CCC2CC3)CC1` [I-N-196, N-(4-(4-(1,4-diazabicyclo[3.2.2]nonan-4-ylsulfonyl)piperidin-1-yl)pyridin-3-yl)-2-amino-6-fluoropyrazolo[1,5-a]pyrimidine-3-carboxamide], for which the Ki under setting [1] lay in the range of 10 to 1000 nM. Same read-out and setting: next, `Cc1cncc(NC(=O)c2c(N)nn3cc(F)cnc23)c1N1CCC(C(=O)N2CCNCC2)CC1` [I-G-56, 2-amino-6-fluoro-N-(5-methyl-4-(4-(piperazine-1-carbonyl)piperidin-1-yl)pyridin-3-yl)pyrazolo[1,5-a]pyrimidine-3-carboxamide]: 10 to 1000 nM. On to `CC(C)N1CCN(c2ccncc2NC(=O)c2c(N)nn3cc(F)cnc23)CC1` [I-N-4, 2-amino-6-fluoro-N-(4-(4-isopropylpiperazin-1-yl)pyridin-3-yl)pyrazolo[1,5-a]pyrimidine-3-carboxamide], for which the Ki under setting [1] fell in the range of 10 to 1000 nM.
